Test results from patent US4533657A, “Analgesic dipeptide amides and method of use and composition thereof” (Sterling Drug Inc., priority 1982, dated 1985).
Like-named read-outs stand apart in the source and are kept apart here.

Tests used:
[1] = system: guinea pig ileum longitudinal muscle with myenteric plexus; test: Guinea Pig Ileum Test (electrically stimulated longitudinal muscle, inhibition of twitch height); type: cell-based; conditions: ratio of IC50 of reference Met5-enkephalin (given as 100) to IC50 of test compound, same preparation, averaged over four preparations
Method: Adult male guinea pigs (Charles River, Hartley strain) weighing 300-500 g. are decapitated, and the terminal ileum is exposed by reflecting the overlying cecum, severed at the ileocecal juncture, and removed while cutting the mesenteric attachments to avoid excessive traction on the tissue. The ileum (about 30 cm. in length) is transferred to a beaker containing warm modified Krebs-Henseleit solution (118 mM sodium chloride, 4.75 mM potassium chloride, 2.45 mM calcium chloride, 1.19 mM potassium dihydrogen phosphate, 1.2 mM magnesium sulfate, 25 mM sodium bicarbonate, 11 mM glucose, 20 μM choline chloride and 0.125 μM pyrilamine maleate). The terminal (aboral) portion (about 10 cm. in length) is discarded, and segments (3-4 cm. in length) are cut from the remainder and gently slid onto a glass rod (5-6 mm. in diameter) and arranged so that the mesenteric attachment is in a straight line. A cotton swab moistened in the solution is then carefully used to separate the longitudinal muscle from the underlying circular muscle. The longitudinal muscle and adhering myenteric plexus is then gently removed from the remaining tissue with forceps.
Strips of thus prepared longitudinal muscle are mounted in a double-jacketed organ bath (5 ml.) under tension (1.0 g.), connected to isometric transducers (Grass FT 0.03), bathed in the modified Krebs-Henseleit solution described above, aerated with oxygen-carbon dioxide (95:5) and maintained at 37° C.
Stimulators (Grass S-44) are set to deliver repetitive monphasic square wave field stimulation (supramaximal voltage, 0.10 Hz., 0.25 msec. duration) through platinum ring electrodes at the top and bottom of the bath. Regular contractions of the muscle, which result from electrically-induced liberation of acetylcholine from postganglionic parasympathetic nerves, are recorded on a polygraph (Grass model 5). Following tissue equilibration (45-60 min.) and repeated washing (every 10 min.) an aqueous solution of a reference or test compound is added to the bath in a microliter volume (1.25-250 μl) and reductions in muscle twitch height are recorded. More compound can be added […] first washing the preparation.
From the results a half-maximal inhibitory concentration (IC50) value for the compound is computed by regression analysis of a linear plot of logarithm of concentration against percent of inhibition of twitch height (probits). The ratio of the […] of a reference compound to that of a test compound tested in the same preparation is the molar potency ratio. Usually four preparations are tested simultaneously by the same person (N=4), and the resulting four molar potency ratios are averaged.
The following results were obtained using the examples as test compounds and Met^5 -enkephalin as the reference compound: […]

Male Swiss-Webster mice = test: Mouse Acetylcholine Writhing Test; type: in vivo; conditions: 20 min, subcutaneous, approximate, acetylcholine 3.2 mg./kg. i.p. 20 min after dosing
Method: Male Swiss-Webster mice each weighing 18-24 g. are treated subcutaneously (10 ml./kg. injection volume) or orally with the test compound in an aqueous vehicle. Twenty minutes thereafter each mouse is injected intraperitoneally with acetylcholine (3.2 mg./kg.) in aqueous sodium chloride (0.9%). This dose of acetylcholine causes one or more characteristic writhes in the two minute period following injection in control mice which receive the aqueous vehicle not containing the test compound. […] Test compounds are screened at doses of 100 and 30 mg./kg. subcutaneously and 300 and 100 mg./kg. orally using 15 mice at each dose level. ED50 values for active compounds are estimated by probit analysis of quantal scores at four or more dose levels using 15 mice at each dose level.

rat = rat tail flick, cited from earlier work
opiate receptor = conditions: rat brain membranes; cited from earlier work
guinea pig ileum = conditions: cited from earlier work
mouse vas deferens = conditions: cited from earlier work

In the case of `C[C@@H](NC(=O)[C@@H](N)Cc1ccc(O)cc1)C(=O)NCCc1ccccc1.Cl.O` [Example 1, L-tyrosyl-N-(2-phenylethyl)-D-alaninamide monohydrochloride hydrate (4:5)], the “Average Molar Potency Ratio” value [1] is reported as 14.

In the case of `C[C@@H](NC(=O)[C@@H](N)Cc1ccc(O)cc1)C(=O)N(C)CCCc1ccccc1.Cl.O` [Example 2, L-tyrosyl-N-methyl-N-(3-phenylpropyl)-D-alaninamide monohydrochloride monohydrate], the ED50 (Male Swiss-Webster mice) is reported as > 10 mg/kg and the “Average Molar Potency Ratio” value [1] is reported as 9.

For `CCN(CCCc1ccccc1)C(=O)[C@@H](C)NC(=O)[C@@H](N)Cc1ccc(O)cc1.Cl` [Example 4, L-tyrosyl-N-ethyl-N-(3-phenylpropyl)-D-alaninamide monohydrochloride], the ED50 (Male Swiss-Webster mice) was > 30 mg/kg and the “Average Molar Potency Ratio” value [1] was 4.

For `C[C@@H](NC(=O)[C@@H](N)Cc1ccc(O)cc1)C(=O)NCCCCc1ccccc1.Cl` [Example 5, L-tyrosyl-N-(4-phenylbutyl)-D-alaninamide monohydrochloride], the “Average Molar Potency Ratio” value [1] was 12.

For `C[C@@H](NC(=O)[C@@H](N)Cc1ccc(O)cc1)C(=O)NCCCCCc1ccccc1.Cl.O` [Example 6, L-tyrosyl-N-(5-phenylpentyl)-D-alaninamide monohydrochloride monohydrate], the “Average Molar Potency Ratio” value [1] was 30.

For `C[C@@H](NC(=O)[C@@H](N)Cc1ccc(O)cc1)C(=O)N(CCCc1ccccc1)CCN(C)C.Cl.Cl` [Example 7, L-tyrosyl-N-[2-(dimethylamino)ethyl]-N-(3-phenylpropyl)-D-alaninamide dihydrochloride], the “Average Molar Potency Ratio” value [1] was 4.

For `C[C@@H](CCc1ccccc1)NC(=O)[C@@H](C)NC(=O)[C@@H](N)Cc1ccc(O)cc1.Cl` [Example 8, L-tyrosyl-N-(1-S-methyl-3-phenylpropyl)-D-alaninamide monohydrochloride], the “Average Molar Potency Ratio” value [1] was 115.

With `C[C@H](CCc1ccccc1)NC(=O)[C@@H](C)NC(=O)[C@@H](N)Cc1ccc(O)cc1.Cl` [Example 9, L-tyrosyl-N-(1-R-methyl-3-phenylpropyl)-D-alaninamide monohydrochloride] the “Average Molar Potency Ratio” value [1] was 12.

With `CSCCCN(CCCc1ccccc1)C(=O)[C@@H](C)NC(=O)[C@@H](N)Cc1ccc(O)cc1.CSCCCN(CCCc1ccccc1)C(=O)[C@@H](C)NC(=O)[C@@H](N)Cc1ccc(O)cc1.Cl.Cl.O` [Example 10, L-tyrosyl-N-[3-(methylthio)propyl]-N-(3-phenylpropyl)-D-alaninamide monhydrochloride hemihydrate] the “Average Molar Potency Ratio” value [1] was 15.

With `C[C@@H](NC(=O)[C@@H](N)Cc1ccc(O)cc1)C(=O)N(CCCc1ccccc1)CCC[S+](C)[O-].Cl` (stereo partly drawn) [Example 11, L-tyrosyl-N-[3-(methylsulfinyl)propyl]-N-(3-phenylpropyl)-D-alaninamide monohydrochloride] the “Average Molar Potency Ratio” value [1] was 3.

In the case of `C[C@@H](NC(=O)[C@@H](N)Cc1ccc(O)cc1)C(N)=O` [H-Tyr-D-Ala-NH2], the “times less potent than morphine” value (rat; intravenously) is given as “greater than 10 times”, the “times less potent than morphine” value (rat; intraventricularly) is given as 200 times and the “times less affinity than morphine” value (opiate receptor) is given as 830 times.

In the case of `C[C@@H](NC(=O)[C@@H](N)Cc1ccc(O)cc1)C(=O)NCCNCCc1ccccc1` [HTyrD-AlaNH(CH2)2 NH(CH2)2 Phenyl], the “potency relative to Met-enkephalin” value (guinea pig ileum) is given as < 1% and the “potency relative to Met-enkephalin” value (mouse vas deferens) is given as < 1%.

In the case of “L-tyrosyl-N-(3-phenylpropyl)-D-alaninamide monohydrochloride sesquihydrate [Example 3]”, the “Average Molar Potency Ratio” value [1] is reported as 117.

For Met^5 -enkephalin [reference compound], the “Average Molar Potency Ratio” value [1] was 100.
